Test results taken from PMC7170299, “Design, synthesis, molecular modelling and biological evaluation of novel 3-(2-naphthyl)-1-phenyl-1H-pyrazole derivatives as potent antioxidants and 15-Lipoxygenase inhibitors” (Journal of Enzyme Inhibition and Medicinal Chemistry, 2020).

Columns and labels:
[1] = DPPH radical scavenging assay; conditions: mean ± SEM of three experiments; 30 min, 517 nm
Procedure: The DPPH scavenging activity of all synthesized compounds was measured as previously described by Nahar et al.[48] with some modifications. Briefly, 100 µL of different concentrations of the tested compounds (12.5, 25, 50, 100, and 200 µg/mL) were pipetted into a 96-well plate. Then, 100 µL of 100-µM DPPH methanolic solution were added to each well and the plate was incubated protected from light at room temperature for 30 min. The absorbance of the solution was measured at λ517 nm.[49] Ascorbic acid was used as the positive control while DMSO was the negative control. The percentage of DPPH scavenging activity was calculated according to the following equation: % of DPPH scavenging=[(Acontrol–Asample)/Acontrol] ×100, where Acontrol is the absorbance of the control reaction (with all reagents except the test compound), and Asample is the absorbance of the test sample. […] All tests were performed in triplicates.

[2] = NO scavenging assay (sodium nitroprusside / Griess reagent); conditions: for NO IC50: mean ± SEM of three experiments, 90 min, 546 nm
Procedure: The NO scavenging activity of all synthesized compounds was measured as previously described by Ho et al.[50] Briefly, 50 µL of different concentrations of the tested compounds (12.5, 25, 50,100, and 200 µg/mL) were pipetted into a 96-well plate. Then, 50 µL of 10-mM sodium nitroprussides dissolved in phosphate-buffered saline PBS (pH 7.4) were added to each well and the plate was incubated for 90 min at room temperature. Next, an equal volume of Griess reagent (1% of sulphanilamide and 0.1% of naphthyl ethylene diamine in 2.5% […]) was added to each well to measure the nitrite content. The absorbance of the formed pink-coloured chromophore was measured at λ 546 nm. DMSO and ascorbic acid were used as the negative and positive control, respectively. All tests were performed in triplicate. The percentage of NO scavenging activity was calculated according to the following equation: % of NO scavenging=[(Acontrol−Asample)/Acontrol]×100 where Acontrol is the absorbance of the control reaction (with all reagents except the test compound), and Asample is the absorbance of the test sample.

[3] = Superoxide scavenging assay (pyrogallol autoxidation); conditions: mean ± SEM of three experiments; pyrogallol autoxidation, 325 nm
Procedure: The improved pyrogallol autoxidation method was used to determine O2^−. RSA of all synthesized compounds as previously described. Briefly, 50 µL of test compounds (12.5, 25, 50,100, and 200 µg/mL) was added to 2900 µl of […] Tris HCl buffer (0.05 M, pH 7.4) containing 1-mM Na2EDTA. Next, 50 µL of 60-mM pyrogallol in1mM HCl had been thoroughly mixed with the mixture. The absorbance of the reaction mixture was measured at A325 nm every 30 s for 5 min. O2^− RSA was expressed by the oxidation degree of a test group in comparison to that of the control. The absorbance at 325 nm was measured against the Tris-HCl buffer every 30 s for 5 min. The percentage of scavenging effect was calculated using the following equation: O2^− radical scavenging %=[(ΔA325, control/T)−(ΔA325nm, sample/T)/ΔA325nm, control/T]×100 where ΔA325 nm, control is the increase in A325 nm of the reaction mixture without the sample and ΔA325 nm, sample is that for the mixture with the sample; T=5 min. The experiments were performed in triplicate.

[4] = target: T1, Soybean 15-LOX enzyme (Glycine max, UniProt P08170); test: In vitro lipoxygenase inhibition (Cayman lipoxygenase inhibitor screening assay kit); assay type: biochemical; conditions: mean ± SEM of three experiments; substrate arachidonic acid
T1 construct: purchased Cayman Chemical 760700
T1 sequence (P08170 1-839): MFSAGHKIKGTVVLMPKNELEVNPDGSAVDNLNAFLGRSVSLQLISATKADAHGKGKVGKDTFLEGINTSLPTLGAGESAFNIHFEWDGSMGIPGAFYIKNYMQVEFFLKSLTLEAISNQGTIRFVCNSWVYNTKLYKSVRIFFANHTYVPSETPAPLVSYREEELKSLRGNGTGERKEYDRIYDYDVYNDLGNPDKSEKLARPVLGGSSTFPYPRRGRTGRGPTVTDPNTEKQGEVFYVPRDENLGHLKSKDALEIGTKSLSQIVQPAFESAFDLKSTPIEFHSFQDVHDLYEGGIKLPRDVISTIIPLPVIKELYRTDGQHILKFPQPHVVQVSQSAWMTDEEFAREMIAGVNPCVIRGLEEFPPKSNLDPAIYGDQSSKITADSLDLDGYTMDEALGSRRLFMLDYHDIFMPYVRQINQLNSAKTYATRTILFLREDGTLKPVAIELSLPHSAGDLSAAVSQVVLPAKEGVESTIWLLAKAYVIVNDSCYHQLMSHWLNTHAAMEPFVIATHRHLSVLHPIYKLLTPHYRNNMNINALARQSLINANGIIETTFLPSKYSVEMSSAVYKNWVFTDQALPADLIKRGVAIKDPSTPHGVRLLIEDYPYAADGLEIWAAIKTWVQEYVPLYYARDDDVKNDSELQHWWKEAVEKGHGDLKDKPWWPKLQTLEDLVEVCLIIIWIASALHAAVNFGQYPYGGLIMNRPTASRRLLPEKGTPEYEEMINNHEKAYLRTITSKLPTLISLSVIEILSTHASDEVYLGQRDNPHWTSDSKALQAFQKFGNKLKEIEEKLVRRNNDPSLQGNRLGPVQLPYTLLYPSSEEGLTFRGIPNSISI
Procedure: The assay was performed using Cayman’s lipoxygenase inhibitor screening assay kit (Catalog No. 760700, Cayman Chemical, USA) according to the manufacturer’s instructions. Briefly, 90 µL of 15-LOX was pipetted into a 96-well plate. Next, 10 µL of test compound at concentrations (2.5, 5.0 and 10 µM) dissolved in DMSO were added to each well. The reaction was initiated by adding 10 µL substrate (AA) and the plate was placed on a shaker for at least 5 minutes. Finally, 100 µL of chromogen (prepared according to manufacturer’s instructions) was added to each well to stop enzyme catalysis and develop the reaction. 100 µL of Assay buffer (0.1 M Tris-HCl, pH7.4) was used in blank wells. […] The absorbance of the solution was measured at λ 490–500 nm. The percentage inhibition was calculated according to the following equation: % inhibition =[(IA−Ainhibitor sample)/IA]×100 where (IA) is the 100% initial activity and (Ainhibitor sample) is the absorbance of the test sample. Dose–response curve was plotted between % inhibition and the drug concentration. The non-linear dose–response curve was used for calculating drug concentration showing 50% enzyme inhibition.

Compound | DPPH IC50 [1] | NO IC50 [2] | melting point | IC50 [4] | Superoxide IC50 [3] | NO scavenging potency relative to ascorbic acid ([2]; folds that of ascorbic acid)
O=C(/C=C/c1cn(-c2ccccc2)nc1-c1ccc2ccccc2c1)c1ccccc1 [Compound 2a, 3-(3-Naphthalen-2-yl-1-phenyl-1H-pyrazole-4-yl)-1-phenyl propenone] | >200 µg/mL | >200 µg/mL | 158 to 159 °C | – | >200 µg/mL | –
COc1ccc(C(=O)/C=C/c2cn(-c3ccccc3)nc2-c2ccc3ccccc3c2)cc1 [Compound 2b, 1-(4-Methoxyphenyl)-3-(3-naphthalen-2-yl-1-phenyl-1H-pyrazole-4-yl)-propenone] | 182.17 ± 0.99 µg/mL | 78.25 ± 1.25 µg/mL | 187 to 188 °C | 3.13 ± 0.09 µM | >200 µg/mL | –
Cc1ccc(C(=O)/C=C/c2cn(-c3ccccc3)nc2-c2ccc3ccccc3c2)cc1 [Compound 2c, 3-(3-Naphthalen-2-yl-1-phenyl-1H-pyrazol-4-yl)-1-p-tolyl propenone] | 192.70 ± 1.63 µg/mL | >200 µg/mL | 146 to 147 °C | 2.8 ± 0.06 µM | >200 µg/mL | –
O=C(/C=C/c1cn(-c2ccccc2)nc1-c1ccc2ccccc2c1)c1ccc(Cl)cc1 [Compound 2d, 1-(4-chlorophenyl)-3-(3-naphthalen-2-yl-1-phenyl-1H-pyrazol-4-yl)propenone] | >200 µg/mL | >200 µg/mL | 161 to 162 °C | – | >200 µg/mL | –
O=C(/C=C/c1cn(-c2ccccc2)nc1-c1ccc2ccccc2c1)c1ccc(Cl)c(Cl)c1 [Compound 2e, 1-(3,4-Dichlorophenyl)-3-(3-naphthalen-2-yl-1-phenyl-1H-pyrazol-4-yl)propenone] | 118.99 ± 1.78 µg/mL | 11.04 ± 0.72 µg/mL | 168 to 169 °C | 4.63 ± 0.09 µM | >200 µg/mL | 3.4 folds

Continued, in another order:

DPPH IC50 [1] | NO IC50 [2] | melting point | IC50 [4] | Compound | Superoxide IC50 [3] | NO scavenging potency relative to ascorbic acid ([2]; folds that of ascorbic acid)
11.70 ± 0.29 µg/mL | 147.95 ± 1.32 µg/mL | 177 to 178 °C | 4.6 ± 0.06 µM | COc1ccc(C2=NNC(c3cn(-c4ccccc4)nc3-c3ccc4ccccc4c3)C2)cc1 (stereo not drawn) [Compound 3b, 5-(4-Methoxyphenyl)-3′-naphthalen-2-yl-1′-phenyl-3,4-dihydro-2H,1’H-[3,4′] bipyrazole] | 118.65 ± 1.03 µg/mL | –
12.06 ± 1.17 µg/mL | >200 µg/mL | 187 to 188 °C | 3.77 ± 0.07 µM | Cc1ccc(C2=NNC(c3cn(-c4ccccc4)nc3-c3ccc4ccccc4c3)C2)cc1 (stereo not drawn) [Compound 3c, 3’-Naphthalen-2-yl-1’-phenyl-5-p-tolyl-3,4-dihydro-2H, 1’H -[3,4’]bipyrazole] | >200 µg/mL | –
>200 µg/mL | >200 µg/mL | 190 to 191 °C | – | Clc1ccc(C2=NNC(c3cn(-c4ccccc4)nc3-c3ccc4ccccc4c3)C2)cc1 (stereo not drawn) [Compound 3d, 5-(4-Chlorophenyl)-3′-naphthalen-2-yl-1′-phenyl-3,4-dihydro-2H,1’H-[3,4′] bipyrazole] | >200 µg/mL | –
9.63 ± 0.55 µg/mL | 175.72 ± 1.41 µg/mL | 195 to 196 °C | 2.53 ± 0.07 µM | Clc1ccc(C2=NNC(c3cn(-c4ccccc4)nc3-c3ccc4ccccc4c3)C2)cc1Cl (stereo not drawn) [Compound 3e, 5-(3,4-Dichlorophenyl)-3′-naphthalen-2-yl-1′-phenyl-3,4-dihydro-2H,1’H-[3,4′]-bipyrazole] | 129.12 ± 0.82 µg/mL | –
34.39 ± 1.03 µg/mL | >200 µg/mL | 187 to 188 °C | 2.53 ± 0.09 µM | c1ccc(C2=NN(c3ccccc3)C(c3cn(-c4ccccc4)nc3-c3ccc4ccccc4c3)C2)cc1 (stereo not drawn) [Compound 4a, 3′-Naphthalen-2-yl-2,5,1′-triphenyl-3,4-dihydro-2H,1’H-[3,4′]bipyrazole] | 176.14 ± 1.63 µg/mL | –
21.28 ± 1.14 µg/mL | >200 µg/mL | 156 to 157 °C | 4 ± 0.06 µM | COc1ccc(C2=NN(c3ccccc3)C(c3cn(-c4ccccc4)nc3-c3ccc4ccccc4c3)C2)cc1 (stereo not drawn) [Compound 4b, 5-(4-Methoxyphenyl)-3′-naphthalen-2-yl-2,1′-diphenyl-3,4-dihydro-2H,1’H-[3,4′] bipyrazole] | 65.63 ± 1.46 µg/mL | –
24.42 ± 0.9 µg/mL | 179.9 ± 1.31 µg/mL | 198 to 199 °C | 1.83 ± 0.07 µM | Cc1ccc(C2=NN(c3ccccc3)C(c3cn(-c4ccccc4)nc3-c3ccc4ccccc4c3)C2)cc1 (stereo not drawn) [Compound 4c, 3′-Naphthalen-2-yl-2,1′-diphenyl-5-p-tolyl-3,4-dihydro-2H, 1’H -[3,4′]bipyrazole] | 145.7 ± 1.42 µg/mL | –
>200 µg/mL | >200 µg/mL | 192 to 193 °C | – | Clc1ccc(C2=NN(c3ccccc3)C(c3cn(-c4ccccc4)nc3-c3ccc4ccccc4c3)C2)cc1 (stereo not drawn) [Compound 4d, 5-(4-Chlorophenyl)-3′-naphthalen-2-yl-2,1′-diphenyl-3,4-dihydro-2H,1'H-[3,4′] bipyrazole] | >200 µg/mL | –
>200 µg/mL | >200 µg/mL | 185 to 186 °C | – | Clc1ccc(C2=NOC(c3cn(-c4ccccc4)nc3-c3ccc4ccccc4c3)C2)cc1 (stereo not drawn) [Compound 5d, 3-(4-Chlorophenyl)-5-(3-naphthalen-2-yl-1-phenyl-1H-pyrazol-4-yl)-4,5-dihydro isoxazole] | >200 µg/mL | –
